Reference: patent US10745370B2, “Farnesyl transferase inhibitors and uses thereof” (MACKAY MEMORIAL HOSPITAL, priority 2016, dated 2020)
Values joined by “and” are separate entries in the source; they are usually repeats but may differ in a detail not shown here. Equal entries are not always repeated. “Also recorded” adds a separate entry of the source.

Columns and labels:
rat PFTase = target: T1, rat PFTase (Rattus norvegicus, UniProt Q02293+Q04631); assay: Inhibition of farnesyl transferase (fluorescence assay); assay type: biochemical; conditions: mean ± SD of three independent experiments
T1 construct: purchased Jena Biosciences
Method: The assay was carried out in 384-well microplates with a final volume of 20 μl by the method modified from the previous report (Long et al., 2009). Briefly, 10 nM of rat PFTase (Jena Biosciences, Jena, Germany) was incubated with the tested compound or DMSO (1%) for 15 min, and then the mixture was added in a solution (50 mM Tris-HCl, pH 7.5, 5 mM MgCl2, 5 mM DTT, 0.1 mM ZnCl2, 0.2% octyl-β-D-glucopyranoside (Sigma, St. Louis, Mo.), 10 μM PFTase substrate dansyl-Gly-Cys-Val-Leu-Ser-OH, and 10 μM farnesyl pyrophosphate (Sigma, St. Louis, Mo.)) to initiate the reaction. The reaction was incubated at 37° C. for 30 min, and the fluorescence was detected by a M5 plate reader (Molecular Devices, CA, USA) at 340 nm excitation and 505 nm emission.

macrophages [1] = assay: Morphology of macrophages (photographs, Liu's staining); assay type: cell-based, human; conditions: for morphology of cells by Liu's staining compared with control cells: FIG. 1 panel C; for cells exhibiting adhesive morphology: FIG. 1 panel A
Method: (§1) Mononuclear cells (MNCs) were separated from the peripheral blood of healthy donors obtained with written consent by use of Ficoll-Hypaque density centrifugation, followed by positive selection with magnetic anti-CD14 microbeads.
(§2) The isolated CD14^+ cells were cultivated in Minimum Essential Medium (MEM medium) supplemented with 10% fetal bovine serum (FBS), 100 ng/ml granulocyte-macrophage colony-stimulating factor (GM-CSF, Gentaur), and 50 ng/ml interleukin-4 (IL-4, R&D), and kept in an environment of 37° C. with 5% CO2/95% air.
(§3) To evaluate the effects of the present compound on dendritic cells, the CD14^+ cells were respectively treated with 10 μM of test compound (i.e., Mib-5, Mib-6, Mib-7, Mib-8, Mib-9, and Mib-10) on day 1. Then, on day 3, the cultured medium in each well was replenished by adding half the volume of the cultured medium containing the same treatment as indicated above. Then, on day 6, a cytokine cocktail containing IL-1, IL-6, and tumor necrosis factor-α (TNF-α) was added to induce maturation. On day 7, the differentiated dendritic cells were collected and subjected to further assays, including viability assay, morphology observation, and cell marker staining.
(§4) As to the effects of the present compound on macrophages, the CD14^+ cells were cultivated and treated as indicated above except the addition of cytokine cocktail on day 6. The macrophages were collected on day 6 and subjected to further assays, including viability assay, trypan blue exclusion test, morphology observation, cell marker staining, and phagocytotic activity analysis.
(§5) Cells were transferred to a glass coverslide and covered with solution A (0.5 g of methylene blue and 1.7 g of Eosin yellow dissolved in 1,000 ml of ethanol). After 45 seconds, solution B (1.3 g of azure, 1.4 g of methylene blue, 23.38 g of Na2HPO4, 6.5 g of KH2PO4, dissolved in 1,000 ml of distilled water) was added in the proportion of 2 parts of B to 1 part of A. Mixed the solutions well by blowing the surface. The slide was left standing for 90 seconds and then washed off the staining solution rapidly by running water. The morphology of stained cells was then examined under microscope.

macrophages [2] = assay: Trypan blue exclusion test on macrophages; assay type: cell-based; conditions: trypan blue analysis, FIG. 2
Method: as §1, §2, §3, §4
(§6) The dye exclusion test is used to determine the number of viable cells present in a cell suspension. […] In this test, the cells were first treated with a test compound (i.e., Mib-5, 6, 7, 8, 9 or 10) for a certain period of time (e.g., 72 hours), then the cells were harvested and re-suspended in suitable buffer solution. The cell suspension was then mixed with trypan blue dye and then visually examined to determine whether cells had taken up or excluded the dye. A viable cell will have a clear cytoplasm, whereas a nonviable cell will have a blue cytoplasm. The concentration required to reduce viability by 50% (IC50) after 72 hours was extrapolated from the dose-response curves by different concentrations of the test compound using a second-order polynomial regression model and analyzing with SigmaPlot Software (Systat Software Inc., San Jose, Calif.).

M1 macrophages [3] = assay: Differentiation analysis, cell viability of M1 macrophages; assay type: cell-based, human; conditions: for Cell viability of M1 macrophages: LPS-induced M1 differentiation, 6 days, control 100%
Method: (§7) M1 differentiation of freshly isolated CD14^+ cells was induced by the addition of lipopolysaccharide (LPS), while M2 differentiation of freshly isolated CD14^+ cells was induced by the addition of IL-4. Then, the present compounds (e.g., Mib-5, 6, 7, 8, 9, or 10) were added at the indicated dosages. 6 days later, the population of the differentiated macrophages were then determined by cell viability analysis. The cell viability was measured by cell counting kit-8 (CCK-8, Sigma). The half maximal inhibitory concentrations (IC50) of the test compounds on macrophages or dendritic cells were calculated.

M2 macrophages [4] = assay: Differentiation analysis, cell viability of M2 macrophages; assay type: cell-based, human; conditions: for Cell viability of M2 macrophages: IL-4-induced M2 differentiation, 6 days, control 100%
Method: as §7

macrophages [5] = assay: Cell marker expression on macrophages (total), flow cytometry; assay type: cell-based, human; conditions: for total expressed level of CD14: FIG. 3; for level of CD206: FIG. 5; for total level of CD80: compared with the control
Method: as §1, §2, §3, §4
(§8) The expression of various types of cell markers, such as CD14, CD206, and CD80 expressed on the surface of macrophages, and CD1a, CD14, CD83, and HLA-DR expressed on the dendritic cells, were respectively detected by fluorescein isothiocyanate (FITC) and phycoerythrin (PE)-conjugated monoclonal antibodies in FACS caliber flowcytometer. Monoclonal antibodies used in this examples included anti-CD14 (IgG-FITC), anti-CD206 (IgG-FITC), anti-CD80-PE, anti-CD1a-PE, anti-CD83-PE and anti-human leukocyte antigen (HLA)-DR-PE. Results were analyzed by CellQuest software.

M1 macrophages [6] = assay: Cell marker expression on M1 macrophages, flow cytometry; assay type: cell-based, human; conditions: for CD14: M1 population after treatment: Table 5; for CD80: change in M1 population: Table 6; for CD206: change in M1: Table 7; for CD206 expression on M1 macrophages: control 14.27%; for CD80 expression on M1 macrophages: control 71.34%; for CD14 expression on M1 macrophages: control 99.83%
Method: as §7, with “analysis.” for “analysis. The cell viability was measured by cell counting kit-8 (CCK-8, Sigma). The half maximal inhibitory concentrations (IC50) of the test compounds on macrophages or dendritic cells were calculated.”
as §8

M2 macrophages [7] = assay: Cell marker expression on M2 macrophages, flow cytometry; assay type: cell-based, human; conditions: for CD14: M2 population after treatment: Table 5; for CD80 expression on M2 macrophages: control 47.64%; for CD14 expression on M2 macrophages: control 55.66%; for CD206 expression on M2 macrophages: control 74.49%; for CD80: change in M2 population: Table 6
Method: as §7, with “analysis.” for “analysis. The cell viability was measured by cell counting kit-8 (CCK-8, Sigma). The half maximal inhibitory concentrations (IC50) of the test compounds on macrophages or dendritic cells were calculated.”
as §8

macrophages [8] = assay: Phagocytosis assay with fluorescent latex beads; assay type: cell-based, human; conditions: M1 and/or M2 populations, FIG. 6
Method: as §4
The phagocytic activity of macrophages was measured by using flow cytometric analysis. The green fluorescent latex beads (carboxylate-modified beads with diameter 2 μm) were suspended in PBS solution and added into macrophage culture for 2 hours with vortexa at 37° C. The macrophages were subjected to flow cytometry for measurement of fluorescent intensity

dendritic cells [9] = assay: Trypan blue exclusion analysis of dendritic cells; assay type: cell-based, human; conditions: 10 μM, seven days, FIG. 7
Method: as §1, §2, §3, §6
(§9) In this example, the effects of the present compounds on dendritic cells were investigated. Briefly, the dendritic cells were respectively treated with 10 μM of Mib-5, Mib-6, Mib-7, Mib-8, or Mib-10. Seven days later, the cells were harvested and subjected to analysis of morphology observation, cell viability, and/or cell marker expression.

dendritic cells [10] = assay: Morphology of dendritic cells by Liu's staining; assay type: cell-based, human; conditions: 10 μM, seven days, FIG. 8
Method: as §1, §2, §3, §5, §9

dendritic cells [11] = assay: Cell marker expression on dendritic cells, flow cytometry; assay type: cell-based, human; conditions: 10 μM; for expression of CD1a, differentiation marker of dendritic cells: FIG. 9; for expression of CD83, maturation marker of dendritic cells: FIG. 10
Method: as §1, §2, §3, §8, §9

| IC50 (rat PFTase) | SMILES | morphology of cells by Liu's staining compared with control cells (macrophages [1]) | cell viability / cytotoxicity toward macrophages (macrophages [2]) | Cell viability of M1 macrophages (M1 macrophages [3]) [%] | Cell viability of M2 macrophages (M2 macrophages [4]) [%] | total expressed level of CD14 (macrophages [5]) | level of CD206 (macrophages [5]) | total level of CD80 (macrophages [5]) | CD14: M1 population after treatment (M1 macrophages [6]) | CD206 expression on M1 macrophages (M1 macrophages [6]) [%] | CD80 expression on M1 macrophages (M1 macrophages [6]) [%] | CD14 expression on M1 macrophages (M1 macrophages [6]) [%] | CD14: M2 population after treatment (M2 macrophages [7]) | CD80 expression on M2 macrophages (M2 macrophages [7]) [%] | CD14 expression on M2 macrophages (M2 macrophages [7]) [%] | CD206 expression on M2 macrophages (M2 macrophages [7]) [%] | phagocytic activity compared with control (macrophages [8]) | levels of viable dendritic cells (dendritic cells [9]) | dendritic cell morphology compared with control group (dendritic cells [10]) | expression of CD1a, differentiation marker of dendritic cells (dendritic cells [11]) | also measured |
| --- | --- | --- | --- | --- | --- | --- | --- | --- | --- | --- | --- | --- | --- | --- | --- | --- | --- | --- | --- | --- | --- |
| 0.13 ± 0.03 µM | CSCC[C@H](NC(=O)c1ccc(NC(=O)[C@@H](N)CS)cc1)C(=O)O [FTase Inhibitor II, reference compound] | – | – | – | – | – | – | – | – | – | – | – | – | – | – | – | – | – | – | – | – |
| < 10 µM and 4.97 µM | COC1=CC(=O)[C@@]2(c3cc(=O)c4c(O)cc(OC)cc4o3)[C@H](C[C@]3(C)[C@@H](C(=O)O)CC=C4[C@H]3CCCC4(C)C)C(C)=CC[C@H]2C1=O [Mib-6] | not significantly affected | slight toxicity; also recorded: no significant cytotoxicity | 57.2 | 90.6 | not affected | increase | significantly reduced | remained relatively unchanged | 4.52 | 6.59 | 86.43 | significant decrease | 41.4 | 91.25 | 77.78 | not | reduced | cell death reflected in morphology changes, and less dendritic process | inhibited | morphology and adhesion of treated macrophages (macrophages [1]; 10 μM, FIG. 1 panel B): became rounded up, and were less adhesive; change in M1 population of macrophages compared with control (M1 macrophages [3]; Table 4): significant reduction; change in M2 population of macrophages compared with control (M2 macrophages [4]; Table 4): slight decrease; CD80: change in M1 population (M1 macrophages [6]): reduction; CD206: change in M1 (M1 macrophages [6]): significant decrease; CD206: change in M2 (M2 macrophages [7]; Table 7): increase; expression of CD83, maturation marker of dendritic cells (dendritic cells [11]): inhibited |
| < 10 µM and 5.05 µM | COC1=CC(=O)[C@@]2(c3cc(=O)c4c(O)cc(O)cc4o3)[C@H](CC=C(C)[C@@H]2C[C@]2(C)[C@@H](C(=O)O)CC=C3[C@H]2CCCC3(C)C)C1=O [Mib-8] | not significantly affected | did not adversely affect cell viability; also recorded: no significant cytotoxicity | 79.4 | 100 | not affected | increase | increased | remained relatively unchanged | 11.98 | 60.16 | 99.73 | significant decrease | 56.66 | 62.34 | 51.05 | reduced | remained relatively unchanged | did not cause any significant changes | not | cells exhibiting adhesive morphology (macrophages [1]; 10 μM): about 20%; reduction in the M1 population (M1 macrophages [3]; compared with control, Table 4): about 20%; change in M2 population of macrophages compared with control (M2 macrophages [4]; Table 4): no effect; increase of total level of CD80 as compared with the control (macrophages [5]): about 2 folds; CD80: change in M1 population (M1 macrophages [6]): reduction; CD206: change in M1 (M1 macrophages [6]): significant decrease; CD80: change in M2 population (M2 macrophages [7]): increase; expression of CD83, maturation marker of dendritic cells (dendritic cells [11]): not affected |
| ~47 µM and 47 µM | COC1=CC(=O)[C@@]2(c3cc(=O)c4ccc(O)cc4o3)[C@H](C[C@]3(C)[C@@H](C(=O)O)CC=C4[C@H]3CCCC4(C)C)C(C)=CC[C@H]2C1=O [Mib-9] | – | – | – | – | – | – | – | – | – | – | – | – | – | – | – | – | – | – | – | – |
| ~28 µM and 27.9 µM | COC1=CC(=O)[C@@]2(c3cc(=O)c4ccc(O)cc4o3)[C@H](CC=C(C)[C@@H]2C[C@]2(C)[C@@H](C(=O)O)CC=C3[C@H]2CCCC3(C)C)C1=O [Mib-10] | not significantly affected | did not adversely affect cell viability; also recorded: no significant cytotoxicity | 82.5 | 145.5 | not affected | increase | increased | remained relatively unchanged | 15.17 | 84.46 | 99.10 | significant decrease | 59.89 | 57.93 | 68.80 | reduced | remained relatively unchanged | did not cause any significant changes | not | cells exhibiting adhesive morphology (macrophages [1]; 10 μM): about 20%; change in M1 population of macrophages compared with control (M1 macrophages [3]; Table 4): decrease; increase of M2 population (M2 macrophages [4]; compared with control, Table 4): about 40%; increase of total level of CD80 as compared with the control (macrophages [5]): about 2 folds; CD80: change in M2 population (M2 macrophages [7]): increase; expression of CD83, maturation marker of dendritic cells (dendritic cells [11]): not affected |
